# Source: the supplement of paper PMC10307832
# Key:
# Assay in all cases: relative viability (nuclei count vs DMSO), 5 days (fraction); higher = more cells survive
# BEN = tested on: BEN
# Method in brief: (§1)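 The day after seeding in 1536-well plates, lung cancer cell lines were treated by pin tool with a single drug, or with a fixed anchor-drug dose together with five library-drug doses (not always all listed) in √10 steps. After 5 days, a combined fix-and-stain solution (final 0.05% Triton X-100, 1% formaldehyde, 1 ug/ml Hoechst) was added. Nuclei counted on 4× images gave relative viability as treated counts over vehicle counts, reported as the median of duplicate plates.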
# EKVX = tested on: EKVX
# Method in brief: as §1
# HARA = tested on: HARA
# Method in brief: as §1
# HCC-366 = tested on: HCC-366
# Method in brief: as §1
# HCC-44 = tested on: HCC-44
# Method in brief: as §1
# HCC-827 = tested on: HCC-827
# Method in brief: as §1
# LC-2-ad = tested on: LC-2-ad
# Method in brief: as §1
# LOU-NH91 = tested on: LOU-NH91
# Method in brief: as §1
# NCI-H1355 = tested on: NCI-H1355
# Method in brief: as §1
# NCI-H1395 = tested on: NCI-H1395
# Method in brief: as §1
# NCI-H1437 = tested on: NCI-H1437
# Method in brief: as §1
# NCI-H1734 = tested on: NCI-H1734
# Method in brief: as §1
# NCI-H1792 = tested on: NCI-H1792
# Method in brief: as §1
# NCI-H2009 = tested on: NCI-H2009
# Method in brief: as §1
# NCI-H2087 = tested on: NCI-H2087
# Method in brief: as §1
# NCI-H2170 = tested on: NCI-H2170
# Method in brief: as §1
# NCI-H2228 = tested on: NCI-H2228
# Method in brief: as §1
# NCI-H2405 = tested on: NCI-H2405
# Method in brief: as §1
# NCI-H596 = tested on: NCI-H596
# Method in brief: as §1
# NCI-H647 = tested on: NCI-H647
# Method in brief: as §1
# NCI-H661 = tested on: NCI-H661
# Method in brief: as §1
# SK-LU-1 = tested on: SK-LU-1
# Method in brief: as §1
# SK-MES-1 = tested on: SK-MES-1
# Method in brief: as §1
structure (smiles),measurement,setting,value
Clc1ccc(Nc2nnc(Cc3ccncc3)c3ccccc23)cc1 [Vatalanib] + CS(=O)(=O)N1CCN(Cc2cc3nc(-c4cccc5[nH]ncc45)nc(N4CCOCC4)c3s2)CC1 [Pictilisib] (partner 1 µM),relative viability,BEN; first compound 0.04 µM,0.552
same,relative viability,BEN; first compound 0.1265 µM,0.495
same,relative viability,BEN; first compound 0.4 µM,0.529
same,relative viability,BEN; first compound 1.265 µM,0.555
same,relative viability,BEN; first compound 4 µM,0.65
same,relative viability,EKVX; first compound 0.04 µM,0.39
same,relative viability,EKVX; first compound 0.1265 µM,0.463
same,relative viability,EKVX; first compound 0.4 µM,0.391
same,relative viability,EKVX; first compound 1.265 µM,0.344
same,relative viability,EKVX; first compound 4 µM,0.396
same,relative viability,HARA; first compound 0.04 µM,0.555
same,relative viability,HARA; first compound 0.1265 µM,0.414
same,relative viability,HARA; first compound 0.4 µM,0.351
same,relative viability,HARA; first compound 1.265 µM,0.454
same,relative viability,HARA; first compound 4 µM,0.369
same,relative viability,HCC-366; first compound 0.04 µM,0.137
same,relative viability,HCC-366; first compound 0.1265 µM,0.196
same,relative viability,HCC-366; first compound 0.4 µM,0.131
same,relative viability,HCC-366; first compound 1.265 µM,0.0986
same,relative viability,HCC-366; first compound 4 µM,0.11
same,relative viability,HCC-44; first compound 0.04 µM,0.704
same,relative viability,HCC-44; first compound 0.1265 µM,0.684
same,relative viability,HCC-44; first compound 0.4 µM,0.63
same,relative viability,HCC-44; first compound 1.265 µM,0.644
same,relative viability,HCC-44; first compound 4 µM,0.613
same,relative viability,HCC-827; first compound 0.04 µM,0.974
same,relative viability,HCC-827; first compound 0.1265 µM,0.872
same,relative viability,HCC-827; first compound 0.4 µM,0.925
same,relative viability,HCC-827; first compound 1.265 µM,1.06
same,relative viability,HCC-827; first compound 4 µM,0.863
same,relative viability,LC-2-ad; first compound 0.04 µM,0.574
same,relative viability,LC-2-ad; first compound 0.1265 µM,0.551
same,relative viability,LC-2-ad; first compound 0.4 µM,0.559
same,relative viability,LC-2-ad; first compound 1.265 µM,0.509
same,relative viability,LC-2-ad; first compound 4 µM,0.645
same,relative viability,LOU-NH91; first compound 0.04 µM,0.512
same,relative viability,LOU-NH91; first compound 0.1265 µM,0.541
same,relative viability,LOU-NH91; first compound 0.4 µM,0.461
same,relative viability,LOU-NH91; first compound 1.265 µM,0.503
same,relative viability,LOU-NH91; first compound 4 µM,0.517
same,relative viability,NCI-H1355; first compound 0.04 µM,0.391
same,relative viability,NCI-H1355; first compound 0.1265 µM,0.441
same,relative viability,NCI-H1355; first compound 0.4 µM,0.53
same,relative viability,NCI-H1355; first compound 1.265 µM,0.394
same,relative viability,NCI-H1355; first compound 4 µM,0.457
same,relative viability,NCI-H1395; first compound 0.04 µM,0.814
same,relative viability,NCI-H1395; first compound 0.1265 µM,0.55
same,relative viability,NCI-H1395; first compound 0.4 µM,0.525
same,relative viability,NCI-H1395; first compound 1.265 µM,0.538
same,relative viability,NCI-H1395; first compound 4 µM,0.616
same,relative viability,NCI-H1437; first compound 0.04 µM,0.49
same,relative viability,NCI-H1437; first compound 0.1265 µM,0.456
same,relative viability,NCI-H1437; first compound 0.4 µM,0.518
same,relative viability,NCI-H1437; first compound 1.265 µM,0.432
same,relative viability,NCI-H1437; first compound 4 µM,0.432
same,relative viability,NCI-H1734; first compound 0.04 µM,0.478
same,relative viability,NCI-H1734; first compound 0.1265 µM,0.471
same,relative viability,NCI-H1734; first compound 0.4 µM,0.503
same,relative viability,NCI-H1734; first compound 1.265 µM,0.45
same,relative viability,NCI-H1734; first compound 4 µM,0.465
same,relative viability,NCI-H1792; first compound 0.04 µM,0.279
same,relative viability,NCI-H1792; first compound 0.1265 µM,0.327
same,relative viability,NCI-H1792; first compound 0.4 µM,0.249
same,relative viability,NCI-H1792; first compound 1.265 µM,0.276
same,relative viability,NCI-H1792; first compound 4 µM,0.28
same,relative viability,NCI-H2009; first compound 0.04 µM,0.977
same,relative viability,NCI-H2009; first compound 0.1265 µM,0.656
same,relative viability,NCI-H2009; first compound 0.4 µM,0.833
same,relative viability,NCI-H2009; first compound 1.265 µM,0.798
same,relative viability,NCI-H2009; first compound 4 µM,0.885
same,relative viability,NCI-H2087; first compound 0.04 µM,0.871
same,relative viability,NCI-H2087; first compound 0.1265 µM,0.752
same,relative viability,NCI-H2087; first compound 0.4 µM,1.15
same,relative viability,NCI-H2087; first compound 1.265 µM,0.826
same,relative viability,NCI-H2087; first compound 4 µM,0.931
same,relative viability,NCI-H2170; first compound 0.04 µM,0.319
same,relative viability,NCI-H2170; first compound 0.1265 µM,0.331
same,relative viability,NCI-H2170; first compound 0.4 µM,0.329
same,relative viability,NCI-H2170; first compound 1.265 µM,0.356
same,relative viability,NCI-H2170; first compound 4 µM,0.306
same,relative viability,NCI-H2228; first compound 0.04 µM,0.313
same,relative viability,NCI-H2228; first compound 0.1265 µM,0.432
same,relative viability,NCI-H2228; first compound 0.4 µM,0.317
same,relative viability,NCI-H2228; first compound 1.265 µM,0.379
same,relative viability,NCI-H2228; first compound 4 µM,0.432
same,relative viability,NCI-H2405; first compound 0.04 µM,0.506
same,relative viability,NCI-H2405; first compound 0.1265 µM,0.429
same,relative viability,NCI-H2405; first compound 1.265 µM,0.352
same,relative viability,NCI-H2405; first compound 4 µM,0.493
same,relative viability,NCI-H596; first compound 0.04 µM,0.347
same,relative viability,NCI-H596; first compound 0.1265 µM,0.353
same,relative viability,NCI-H596; first compound 0.4 µM,0.392
same,relative viability,NCI-H596; first compound 1.265 µM,0.371
same,relative viability,NCI-H596; first compound 4 µM,0.393
same,relative viability,NCI-H647; first compound 0.04 µM,0.387
same,relative viability,NCI-H647; first compound 0.1265 µM,0.42
same,relative viability,NCI-H647; first compound 1.265 µM,0.385
same,relative viability,NCI-H647; first compound 4 µM,0.4
same,relative viability,NCI-H661; first compound 0.04 µM,0.345
same,relative viability,NCI-H661; first compound 0.1265 µM,0.378
same,relative viability,NCI-H661; first compound 0.4 µM,0.392
same,relative viability,NCI-H661; first compound 1.265 µM,0.365
same,relative viability,NCI-H661; first compound 4 µM,0.34
same,relative viability,SK-LU-1; first compound 0.04 µM,0.596
same,relative viability,SK-LU-1; first compound 0.1265 µM,0.581
same,relative viability,SK-LU-1; first compound 0.4 µM,0.523
same,relative viability,SK-LU-1; first compound 1.265 µM,0.535
same,relative viability,SK-LU-1; first compound 4 µM,0.527
same,relative viability,SK-MES-1; first compound 0.04 µM,0.408
same,relative viability,SK-MES-1; first compound 0.1265 µM,0.351
same,relative viability,SK-MES-1; first compound 0.4 µM,0.387
same,relative viability,SK-MES-1; first compound 1.265 µM,0.338
same,relative viability,SK-MES-1; first compound 4 µM,0.365
